The source of these data is patent US7390795B2, “Treatment and prevention of tissue damage” (Pentraxin Therapeutics Limited, priority 2000, dated 2008).

For one series, the target named is T1, C-reactive protein (CRP) (Homo sapiens, UniProt P02741).
T1 construct: from tissue; host or cells: Human material
T1 sequence (P02741 19-224): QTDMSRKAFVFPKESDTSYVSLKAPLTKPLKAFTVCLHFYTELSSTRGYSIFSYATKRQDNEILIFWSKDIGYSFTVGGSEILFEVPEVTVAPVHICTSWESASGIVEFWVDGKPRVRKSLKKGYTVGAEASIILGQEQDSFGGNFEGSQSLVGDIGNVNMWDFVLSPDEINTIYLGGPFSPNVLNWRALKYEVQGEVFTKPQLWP
The series is described as follows: Inhibition of binding of 125I radiolabelled CRP to enzyme modified low density lipoprotein immobilized in microtitre plates. The procedure: Screening for Inhibitors of Binding of ^125I Radiolabelled CRP to Enzyme Modified Low Density Lipoprotein Immobilized in Microtitre Plates. […] However, likely critical ligands of importance in vivo in the pathogenesis of atherothrombosis, are modified forms of low density lipoprotein. […] All wells were then washed three times with 200 μl volumes of PBS before blocking by incubation for 1 h at room temperature with 100 μl per well of 0.2 m Tris pH 8.0. The wells were then washed again 3 times with 200 μl volumes of PBS and finally emptied before adding to each one 100 μl volumes of the following reagents.

For series [1], the system named is experimental acute myocardial infarction produced by coronary artery ligation. From the text: Induction and Measurement of Myocardial Infarction. Female Wistar rats bred at ICSM, Hammersmith campus were used at age 9-10 wk and weighed 230-280 g. […] All animals were carefully examined and were healthy before being fasted overnight prior to surgery. General anesthesia was induced with inhaled isoflurane and supplemental oxygen was provided at 1.0 liter/min. The chest was opened through the sixth intercostal space, anesthesia was discontinued but supplemental oxygen continued at 0.5 liter/min, and the pericardium was opened to allow the heart to be lifted cut of the thorax. The left anterior descending coronary artery was immediately ligated at a constant distance just below the atrium with a 5/0 silk suture, the heart was replaced and the chest closed whilst active ventilation with 100% oxygen was continued. The duration of pneumothorax was about 30 s. […] Buprenorphine 0.05 mg/kg was given immediately for post-operative analgesia and repeated 12 hourly.
Deep anesthesia was induced with isoflurane and the hearts were excised while still beating in sinus rhythm and immediately arrested in diastole by immersion in 10 ml of 30 mM KCl. They were then cleaned of any extraneous adherent tissue and weighed before being briefly chilled at −20° C. to produce sufficient rigidity to facilitate cutting into defined sections. Each heart was cut into four slices of equal thickness perpendicular to the course of the left coronary artery, starting from the apex of the heart and ending at the position of the ligature around that artery. These slices were designated A, B, C, and D starting from the apex, and each was washed with pure water and then immersed in 0.02 M phosphate buffer pH 7.4 containing 0.5 mg/ml of nitroblue tetrazolium (NBT) (Sigma) at 37° C. for 30 min. NBT stains viable but not infarcted myocardium.
After staining with NBT the slices were washed briefly in cold water before fixation in 10% buffered formalin for 48 h, and the proximal cut surface of each slice was then imaged under standard conditions with a high resolution digital camera. The captured images were coded and analyzed ‘blind’ without knowledge by the operators of the treatment received by the rat in question. Lines were drawn around the total area of the slice, the NBT negative infarct zone, and any parts of the image to be excluded from the estimation including valves, chordae tendinae, shadows and edges, and the area of the infarct was determined as a percentage of the total area. […] Statistical significance of differences between infarct sizes in different treatment groups within each experiment were sought by one way ANOVA and by Bonferroni t-tests.
In Vivo Treatments. […] Human CRP or SAP were injected i.p. at 40 mg/kg 1 h after coronary artery ligation and then at 24 h intervals until the rats were killed on day 5. The proteins were dissolved in 10 mM Tris, 140 mM NaCl, pH 8.0, also containing 2 mM CaCl2 in the case of human CRP, and the control rats received injections of the buffer alone at the same intervals.

The nature of series [2]: Plasma clearance and serum concentration of injected human CRP and SAP in rats.
Protocol: Human CRP or SAP were injected i.p. at 40 mg/kg 1 h after coronary artery ligation and then at 24 h intervals until the rats were killed on day 5. The proteins were dissolved in 10 mM Tris, 140 mM NaCl, pH 8.0, also containing 2 mM CaCl2 in the case of human CRP, and the control rats received injections of the buffer alone at the same intervals. […] Plasma clearance of human CRP was also studied in the same protocol in normal unoperated rats that had received cobra venom factor 24 h previously.
The mark [3] stands for this setting: Experiment 2, 40 mg/kg i.p. 1 h after ligation then every 24 h, day 5.
[4] abbreviates: Experiment 2, 5 rats treated, 40 mg/kg i.p. daily.

Where two headings read alike, the source gives them in different places.

Regarding `CCCCCCCCCCCCCCCCOP(=O)([O-])OCC[N+](C)(C)C` [Hexadecyl phosphocholine, hexadecyl phosphocholine], the “Percent inhibition of binding of radiolabelled CRP to immobilized enzyme modified low density lipoprotein” value (“Percent inhibition” for short) at C-reactive protein (CRP) (compound molarity 1 μM) was determined as 0; on C-reactive protein (CRP) (compound molarity 10 μM) it was 0; on C-reactive protein (CRP) (compound molarity 100 μM), 76; at C-reactive protein (CRP) (compound molarity 1 mM) it was 73; on C-reactive protein (CRP) (compound molarity 10 mM) it was 94. The “IC50 for inhibition of CRP binding to enzyme modified LDL” value at C-reactive protein (CRP) (stated in words) was “in the micromolar range”.
On to `N[C@@H](COP(=O)(O)O)C(=O)O` [Phosphoserine, phosphoserine], for which the “Percent inhibition” value is given as 0 at C-reactive protein (CRP) (compound molarity 1 μM); 0 on C-reactive protein (CRP) (compound molarity 10 μM); 0 at C-reactive protein (CRP) (compound molarity 100 μM); 0 on C-reactive protein (CRP) (compound molarity 1 mM); 38 on C-reactive protein (CRP) (compound molarity 10 mM).
Take `NCCOP(=O)(O)O` [Phosphoethanolamine, phosphoethanolamine]: the “Inhibition of CRP binding to enzyme modified LDL, in words” value on C-reactive protein (CRP) is “inhibition at high concentration, but only modest effects when diluted”. In addition, the “Percent inhibition” value on C-reactive protein (CRP) (compound molarity 1 μM) turned out to be 0; on C-reactive protein (CRP) (compound molarity 10 μM), 0; at C-reactive protein (CRP) (compound molarity 100 μM), 39; on C-reactive protein (CRP) (compound molarity 1 mM), 90; on C-reactive protein (CRP) (compound molarity 10 mM), 92.
Turning to `O=C(O)CN(CCN(CC(=O)O)CC(=O)O)CC(=O)O` [EDTA], at C-reactive protein (CRP), the “Inhibition of CRP binding to enzyme modified LDL, in words” value is reported as “All binding was inhibited”.
As for “Human SAP: human serum amyloid P component, pentraxin closely related to CRP”, in series [1] (setting [3]), the “Infarct size mean (SD) %” value is reported as 12.4 (1.9) %. Further, the “Day 5 survivors” value in series [1] (setting [4]) was found to be 5. The Clinical condition entry in series [1] (normal or coronary artery ligated rats) is recorded as “no adverse clinical effects”.
Turning to “Human CRP: isolated pure human C-reactive protein, a plasma pentraxin”, the “Serum concentration of the injected protein” value in series [2] (coronary artery ligated rats killed 24 h after the last of 5 daily 40 mg/kg i.p. injections) is 13000 to 53000 ng/mL. In addition, the “Plasma clearance in decomplemented rats” value in series [2] (single 40 mg/kg i.p., cobra venom factor 250 U/kg 24 h beforehand, unoperated rats) is recorded as “not affected by complement depletion”. Also, the “Infarct size mean (SD) %” value is on record as 21.2 (2.0) % in series [1] (Experiment 1, 40 mg/kg i.p. 1 h after ligation then every 24 h, day 5); 17.6 (0.4) % in series [1] (setting [3]); 19.7 (1.6) % in series [1] (rat, in vivo). Further, the “Day 5 survivors” value in series [1] (Experiment 1, 5 rats treated, 40 mg/kg i.p. daily) was found to be 4; in series [1] (setting [4]), 3; in series [1] (Table 3 experiment, 5 or 6 rats treated), 3. Moreover, in series [1] (complement sufficient rats, day 5, Table 3 experiment), the “Infarcts larger than in control untreated animals” value is recorded as “approximately 40%”. For the same molecule, the Clinical condition entry in series [1] (coronary artery ligated rats, 40 mg/kg i.p.) is “rapidly became clinically less well than buffer-treated controls”; in series [1] (rats not operated on, same doses) it was “absolutely no ill effects”. In series [1] (day 5, Table 2 experiments), the “Infarcts larger than in control rats treated with buffer or human SAP” value is reported as “about 40%”. In addition, the “Effect on the reduced infarct size in decomplemented rats” value in series [1] (rat, in vivo) is reported as “no effect at all”.
